Reference: patent publication US9321764B2, “Dihydro-pyrrolopyridinone inhibitors” (AbbVie Inc., priority 2013, dated 2016)

Experiments:
BRD4 (BDI_K57-E168) = target: T1, BRD4 (BDI_K57-E168) (Homo sapiens, UniProt O60885); assay: TR-FRET bromodomain binding assay, first bromodomain of BRD4; details: His-tagged BD1, 100 nM Alexa647 probe; TR-FRET protocol A-E given per row
T1 construct: BD1: amino acids K57-E168; made in house
Procedure: (§1) A time-resolved fluorescence resonance energy transfer (TR-FRET) assay was used to determine the affinities of compounds of the Examples listed in Table 1 for each bromodomain of BRD4. His-tagged first (BD1: amino acids K57-E168) and second (BD2: amino acids E352-E168) bromodomains of BRD4 were expressed and purified. An Alexa647-labeled BET-inhibitor was used as the fluorescent probe in the assay.
(§2) Compound dilution series were prepared in DMSO via an approximately 3-fold serial dilution from one of the following:
Assay method A: 250 μM-4.2 nM
Assay method B: 0.47 mM to 7.8 nM
Assay method C: 500 μM-8.5 nM
(§3) Assay method D: 2.5 mM-800 nM
Assay method E: 0.047 mM to 0.78 nM or 5-fold serial dilution from Assay method D
For Assay methods A, C, and D: Compounds were then diluted 6:100 in assay buffer (20 mM Sodium Phosphate, pH 6.0, 50 mM NaCl, 1 mM Ethylenediaminetetraacetic acid, 0.01% Triton X-100, 1 mM DL-Dithiothreitol) to yield 3× working solutions. Six microliters (μL) of the working solution was then transferred to white, low-volume assay plates (Costar #3673). A 1.5× assay mixture containing His-tagged bromodomain, Europium-conjugated anti-His antibody (Invitrogen PV5596) and the Alexa-647-conjugated probe molecule was also prepared. Twelve μL of this solution were added to the assay plate to reach a final volume of 18 μL.
For Assay methods B and E: Compound dilutions were added directly into white, low-volume assay plates (Perkin Elmer Proxiplate 384 Plus #6008280) using a Labcyte Echo in conjunction with Labcyte Access and Thermo Multidrop CombinL robotics. Compounds were then suspended in eight microliters (μL) of assay buffer (20 mM Sodium Phosphate, pH 6.0, 50 mM NaCl, 1 mM Ethylenediaminetetraacetic acid disodium salt dihydrate, 0.01% Triton X-100, 1 mM DL-Dithiothreitol) containing His-tagged bromodomain, Europium-conjugated anti-His antibody (Invitrogen PV5596) and Alexa-647-conjugated probe.
The final concentration of 1× assay mixture for assay methods A, B, C, D, and E contains 2% DMSO, 8 nM His-tagged bromodomain, 1 nM Europium-conjugated anti-His-tag antibody and 100 nM or 30 nM probe (for BDI or BDII, respectively) and compound concentration in the range of: 5 μM-85 pM for method A, 9.19 μM 150 pM for method B, 10 μM-169 pM for method C, 50 μM-16 nM for method D, and 0.92 μM-15 pM for method E.
After a one-hour equilibration at room temperature, TR-FRET ratios were determined using an Envision multilabel plate reader (Ex 340, Em 495/520).
TR-FRET data were normalized to the means of 24 no-compound controls (“high”) and 8 controls containing 1 μM un-labeled probe (“low”). Percent inhibition was plotted as a function of compound concentration and the data were fit with the 4 parameter logistic equation to obtain IC50s Inhibition constants (Ki) were calculated from the IC50s, probe Kd and probe concentration. Typical Z′ values were between 0.65 and 0.75. The minimum significant ratio was determined to evaluate assay reproducibility (Eastwood et al., (2006) J Biomol Screen, 11: 253-261). The MSR was determined to be 2.03 for BDI and 1.93 for BDII, and a moving MSR (last six run MSR overtime) for both BDI and BDII was typically <3.

BRD4 (BDII_E352-M457) = target: T2, BRD4 (BDII_E352-M457) (Homo sapiens, UniProt O60885); assay: TR-FRET bromodomain binding assay, second bromodomain of BRD4; details: His-tagged BD2, 30 nM Alexa647 probe; TR-FRET protocol A-E given per row
T2 construct: proliferation; Protocol; made in house
Procedure: as §1, §2, §3
For Assay methods A, C, and D: Compounds were then diluted 6:100 in assay buffer (20 mM Sodium Phosphate, pH 6.0, 50 mM NaCl, 1 mM Ethylenediaminetetraacetic acid, 0.01% Triton X-100, 1 mM DL-Dithiothreitol) to yield 3× working solutions. […] Twelve μL of this solution were added to the assay plate to reach a final volume of 18 μL.
TR-FRET data were normalized to the means of 24 no-compound controls (“high”) and 8 controls containing 1 μM un-labeled probe (“low”). Percent inhibition was plotted as a function of compound concentration and the data were fit with the 4 parameter logistic equation to obtain IC50s Inhibition constants (Ki) were calculated from the IC50s, probe Kd and probe concentration. Typical Z′ values were between 0.65 and 0.75.

Row | Structure (SMILES) | Ki (BRD4 (BDI_K57-E168)) [nM] | Ki (BRD4 (BDII_E352-M457)) [nM]
1 | Cn1ccc2c(-c3cc(S(C)(=O)=O)ccc3OCC3CC3(F)F)cn(C)c2c1=O (stereo not drawn) [Example 43, 3-{2-[(2,2-difluorocyclopropyl)methoxy]-5-(methylsulfonyl)phenyl}-1,6-dimethyl-1,6-dihydro-7H-pyrrolo[2,3-c]pyridin-7-one] | 2580 | 2540
2 | Cn1cc(-c2cc(S(C)(=O)=O)ccc2OCCc2cccs2)c2cc[nH]c(=O)c21 [Example 39, 1-methyl-3-{5-(methylsulfonyl)-2-[2-(thiophen-2-yl)ethoxy]phenyl}-1,6-dihydro-7H-pyrrolo[2,3-c]pyridin-7-one] | 63 | 51
3 | Cn1cc(-c2cc(S(C)(=O)=O)ccc2NCCC2CCCC2)c2cc[nH]c(=O)c21 [Example 72, 3-{2-[(2-cyclopentylethyl)amino]-5-(methylsulfonyl)phenyl}-1-methyl-1,6-dihydro-7H-pyrrolo[2,3-c]pyridin-7-one] | 492 | 967
4 | Cn1cc(-c2cc(S(C)(=O)=O)ccc2NCC(F)(F)C(F)(F)C(F)(F)F)c2cc[nH]c(=O)c21 [Example 70, 3-{2-[(2,2,3,3,4,4,4-heptafluorobutyl)amino]-5-(methylsulfonyl)phenyl}-1-methyl-1,6-dihydro-7H-pyrrolo[2,3-c]pyridin-7-one] | 613 | 1660
5 | Cn1cc(-c2cc(S(C)(=O)=O)ccc2OCCCC2CCCC2)c2cc[nH]c(=O)c21 [Example 66, 3-[2-(3-cyclopentylpropoxy)-5-(methylsulfonyl)phenyl]-1-methyl-1,6-dihydro-7H-pyrrolo[2,3-c]pyridin-7-one] | 219 | 741
6 | Cn1cc(-c2cc(S(C)(=O)=O)ccc2OCCC23CC4CC(CC(C4)C2)C3)c2cc[nH]c(=O)c21 [Example 65] | 416 | 2640
7 | COc1ccc(S(C)(=O)=O)cc1-c1cn(C)c2c(=O)[nH]ccc12 [Example 21, 3-[2-methoxy-5-(methylsulfonyl)phenyl]-1-methyl-1,6-dihydro-7H-pyrrolo[2,3-c]pyridin-7-one] | 438 | 721
8 | Cn1cc(-c2c(OCC3CC3)ccc3cc[nH]c23)c2cc[nH]c(=O)c21 [Example 98, 3-[6-(cyclopropylmethoxy)-1H-indol-7-yl]-1-methyl-1,6-dihydro-7H-pyrrolo[2,3-c]pyridin-7-one] | 992 | 2030
9 | CCS(=O)(=O)c1ccc(Oc2cccnc2)c(-c2cn(C)c3c(=O)[nH]ccc23)c1 [Example 81, 3-[5-(ethylsulfonyl)-2-(pyridin-3-yloxy)phenyl]-1-methyl-1,6-dihydro-7H-pyrrolo[2,3-c]pyridin-7-one] | 81 | 100
10 | Cn1cc(-c2cc(CS(C)(=O)=O)ccc2Oc2ccc(F)cc2F)c2cc(-c3cc(CS(C)(=O)=O)ccc3Oc3ccc(F)cc3F)[nH]c(=O)c21 [Example 93, 3,5-bis{2-(2,4-difluorophenoxy)-5-[(methylsulfonyl)methyl]phenyl}-1-methyl-1,6-dihydro-7H-pyrrolo[2,3-c]pyridin-7-one] | 484 | 619

Results, then the compound that gave them:

Row | Ki (BRD4 (BDI_K57-E168)) [nM] | Ki (BRD4 (BDII_E352-M457)) [nM] | Structure (SMILES)
11 | 776 | 750 | CC(C)CCNCc1ccc(Oc2ccc(F)cc2F)c(-c2cn(C)c3c(=O)[nH]ccc23)c1 [Example 117, 3-[2-(2,4-difluorophenoxy)-5-{[(3-methylbutyl)amino]methyl}phenyl]-1-methyl-1,6-dihydro-7H-pyrrolo[2,3-c]pyridin-7-one]
12 | 109 | 47 | COC(=O)/C=C/N(c1ccc(F)cc1)c1ccc(CS(C)(=O)=O)cc1-c1cn(C)c2c(=O)[nH]ccc12 [Example 166, methyl (2E)-3-[(4-fluorophenyl) {2-(1-methyl-7-oxo-6,7-dihydro-1H-pyrrolo[2,3-c]pyridin-3-yl)-4-[(methylsulfonyl)methyl]phenyl}amino]prop-2-enoate]
13 | 598 | > 920 | Cn1cc(-c2cc(NC(=O)c3ccc(COc4ccccc4)cc3)ccc2Oc2ccc(F)cc2F)c2cc[nH]c(=O)c21 [Example 156, N-[4-(2,4-difluorophenoxy)-3-(1-methyl-7-oxo-6,7-dihydro-1H-pyrrolo[2,3-c]pyridin-3-yl)phenyl]-4-(phenoxymethyl)benzamide]
14 | 29.2 | 99.9 | CCS(=O)(=O)Nc1ccc(Oc2ccc(F)cc2F)c(-c2cn(C)c3c(=O)[nH]c(CN4CCOCC4)cc23)c1 [Example 182, N-{4-(2,4-difluorophenoxy)-3-[1-methyl-5-(morpholin-4-ylmethyl)-7-oxo-6,7-dihydro-1H-pyrrolo[2,3-c]pyridin-3-yl]phenyl}ethanesulfonamide]
15 | 1150 | > 4000 | Cn1cc(-c2cc(CNS(=O)(=O)c3cc(Cl)sc3Cl)ccc2Oc2ccc(F)cc2F)c2cc[nH]c(=O)c21 [Example 138, 2,5-dichloro-N-[4-(2,4-difluorophenoxy)-3-(1-methyl-7-oxo-6,7-dihydro-1H-pyrrolo[2,3-c]pyridin-3-yl)benzyl]thiophene-3-sulfonamide]
16 | 24 | 81.3 | Cc1ncc(CC(=O)Nc2ccc(Oc3ccc(F)cc3F)c(-c3cn(C)c4c(=O)[nH]ccc34)c2)s1 [Example 163, N-[4-(2,4-difluorophenoxy)-3-(1-methyl-7-oxo-6,7-dihydro-1H-pyrrolo[2,3-c]pyridin-3-yl)phenyl]-2-(2-methyl-1,3-thiazol-5-yl)acetamide]
17 | 69.1 | 285 | Cn1cc(-c2cc(NCc3c(F)cccc3F)ccc2Oc2ccc(F)cc2F)c2cc[nH]c(=O)c21 [Example 175, 3-{5-[(2,6-difluorobenzyl)amino]-2-(2,4-difluorophenoxy)phenyl}-1-methyl-1,6-dihydro-7H-pyrrolo[2,3-c]pyridin-7-one]
18 | > 2380 | 407 | CNC(=O)c1cc2c(-c3cn(C)c4c(=O)[nH]ccc34)c(OCC3CC3)ccc2[nH]1 [Example 107, 5-(cyclopropylmethoxy)-N-methyl-4-(1-methyl-7-oxo-6,7-dihydro-1H-pyrrolo[2,3-c]pyridin-3-yl)-1H-indole-2-carboxamide]
19 | > 2380 | 2430 | CCOC(=O)c1cc2c(-c3cn(C)c4c(=O)[nH]ccc34)c(OCC3CC3)ccc2[nH]1 [Example 99, ethyl 5-(cyclopropylmethoxy)-4-(1-methyl-7-oxo-6,7-dihydro-1H-pyrrolo[2,3-c]pyridin-3-yl)-1H-indole-2-carboxylate]
20 | 1140 | 1190 | Cn1cc(-c2cc(CN3CCC(C(F)(F)F)CC3)ccc2Oc2ccc(F)cc2F)c2cc[nH]c(=O)c21 [Example 129, 3-[2-(2,4-difluorophenoxy)-5-{[4-(trifluoromethyl)piperidin-1-yl]methyl]phenyl}-1-methyl-1,6-dihydro-7H-pyrrolo[2,3-c]pyridin-7-one]
21 | 101 | > 408 | Cn1cc(-c2cc(NC(=O)Cc3ccc(Cl)cc3F)ccc2Oc2ccc(F)cc2F)c2cc[nH]c(=O)c21 [Example 160, 2-(4-chloro-2-fluorophenyl)-N-[4-(2,4-difluorophenoxy)-3-(1-methyl-7-oxo-6,7-dihydro-1H-pyrrolo[2,3-c]pyridin-3-yl)phenyl]acetamide]
